In patent US20030171545A1, “Novel Protein” (priority 1999, published 2003):
Entries after “also recorded” stand apart in the source; their conditions may differ.

Columns and labels:
LTRGW1 [1] = molecular target: T1, LTRGW1 (Homo sapiens, UniProt Q9NPC1); conditions: leukotriene binding to LTRGW1; Kamohara et al; cited from earlier work
T1 sequence (Q9NPC1 1-358): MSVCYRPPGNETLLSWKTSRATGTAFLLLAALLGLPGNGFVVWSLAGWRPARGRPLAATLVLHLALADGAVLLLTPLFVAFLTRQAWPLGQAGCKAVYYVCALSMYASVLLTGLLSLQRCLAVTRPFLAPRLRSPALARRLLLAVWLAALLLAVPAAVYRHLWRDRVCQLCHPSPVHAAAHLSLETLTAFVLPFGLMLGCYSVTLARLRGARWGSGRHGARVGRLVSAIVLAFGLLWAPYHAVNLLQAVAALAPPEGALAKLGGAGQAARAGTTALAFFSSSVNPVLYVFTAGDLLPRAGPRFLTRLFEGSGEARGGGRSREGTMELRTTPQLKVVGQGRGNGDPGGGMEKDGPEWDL

[2] = system: Mock transfected CHO cells; test: FLIPR intracellular calcium response to LTB4, mock transfected CHO cells; type: cell-based; conditions: LTB4 10^-10 to 10^-7 M, normalised to luciferase
Procedure: (§1) […] total DNA was transfected into CHO cells using the following transfection mix: 5 μg BLTR, pcDNA3 as needed to keep constant the amount of total DNA used, 1 μg pCMV-luciferase and BLTR-2 at various concentration. Responses to LTB4 (between 10^−10 and 10^−7 M) were measured using a FLIPR assay (Fluorescence Imaging Plate Reader—Molecular Devices) and values were normalised relative to the luciferase reading.

BLTR = molecular target: T2, BLTR (Homo sapiens, UniProt Q15722); test: FLIPR intracellular calcium response to LTB4, CHO cells transfected with BLTR; type: cell-based; conditions: LTB4 10^-10 to 10^-7 M
T2 construct: expressed in transfected cells; host or cells: CHO
Procedure: as §1

LTRGW1 [3] = test: FLIPR intracellular calcium response to LTB4, CHO cells transfected with LTRGW1 alone; type: cell-based, human
Procedure: […] Responses to LTB4 (between 10^−10 and 10^−7 M) were measured using a FLIPR assay (Fluorescence Imaging Plate Reader—Molecular Devices) and values were normalised relative to the luciferase reading.

BLTR/LTRGW1 = test: FLIPR intracellular calcium response to LTB4, CHO cells co-transfected with BLTR and LTRGW1; type: cell-based, human
Procedure: as §1

[4] = molecular target: T3, BLTR and LTRGW1 co-expressed (Homo sapiens, UniProt Q15722+Q9NPC1); test: [3H]LTB4 binding to membranes of transfected CHO cells, scintillation proximity assay; conditions: [3H]LTB4, membranes of transfected CHO cells; compared with BLTR or LTRGW1 alone; FIG. 2
T3 construct: expressed in transfected cells; host or cells: CHO
Procedure: CHO cells were transfected with DNA as described in Example 1. [^3H] LTB4 binding to membrane preparations from transfected cells was measured using wheat germ agglutinin beads in a scintillation proximity assay. The assay was carried out in 50: g Hepes 20: g MgCl2 in a total assay volume of 100: g. [^3H] LTB4 was used to measure total binding. [^3H] LTB4 was then displaced with unlabelled LTB4 to measure non-specific binding (NSB). The binding of LTB4 to cells expressing BLTR cells co-expressing BLTR and LTRGW1 and cells expressing LTRGW1 is illustrated in FIG. 2.

LTRGW1 [5] = molecular target: T1, LTRGW1; conditions: Kamohara et al; cited from earlier work
LTRGW1 [6] = molecular target: T1, LTRGW1; conditions: Yokomizo et al; cited from earlier work

T3 sequence (Q15722 whole entry, one chain of several): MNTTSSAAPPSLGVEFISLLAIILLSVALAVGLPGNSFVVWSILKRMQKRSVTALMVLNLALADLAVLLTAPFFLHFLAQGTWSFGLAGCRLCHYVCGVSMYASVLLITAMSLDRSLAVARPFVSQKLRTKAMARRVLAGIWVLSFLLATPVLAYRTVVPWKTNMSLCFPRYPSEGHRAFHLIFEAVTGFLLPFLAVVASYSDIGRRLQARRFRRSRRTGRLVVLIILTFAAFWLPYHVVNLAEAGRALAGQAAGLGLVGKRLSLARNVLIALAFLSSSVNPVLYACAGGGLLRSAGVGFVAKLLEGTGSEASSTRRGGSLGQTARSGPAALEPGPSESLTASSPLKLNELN
T2 sequence (Q15722 whole entry): as the sequence (Q15722 whole entry, one chain of several) above

Question: With `CCCCC/C=C\C[C@H](O)/C=C/C=C/C=C\[C@@H](O)CCCC(=O)O` [12-epi-LTB4] as the compound, how does the “Forskolin-stimulated intracellular cAMP accumulation” value (LTRGW1 [1]) read?
Answer: inhibition

Question: With `CCCCC/C=C\C[C@@H](O)/C=C/C=C/C=C\[C@@H](O)CCCC(=O)O` [LTB4] as the compound, how does the “Response to LTB4” value [2] read?
Answer: Inactive

Question: And the “Response to LTB4” value (BLTR)?
Answer: Active

Question: What about the “Response to LTB4” value (LTRGW1 [3]; CHO cells transfected with LTRGW1(274)) of the same compound?
Answer: Inactive

Question: And the “Response to LTB4” value (LTRGW1 [3]; CHO cells transfected with LTRGW1(275))?
Answer: Inactive

Question: What about the “Response to LTB4” value (LTRGW1 [3]; CHO cells transfected with LTRGW1(276)) of the same compound?
Answer: Inactive

Question: What about the “Mobilisation of intracellular calcium in response to LTB4” value (LTRGW1 [3]; LTRGW1 expressed alone in CHO cells) of the same compound?
Answer: does not induce a detectable mobilisation of intracellular calcium

Question: And the “Response to LTB4” value (BLTR/LTRGW1; CHO cells transfected with BLTR/LTRGW1(276), FLIPR)?
Answer: Active

Question: And the “Response of BLTR to LTB4 when LTRGW1 is co-expressed” value (BLTR/LTRGW1; compared with BLTR alone, increase proportional to amount of LTRGW1 in transfection mix, FIG. 1)?
Answer: increased

Question: And the “LTB4 binding to cells co-expressing BLTR and LTRGW1” value [4]?
Answer: enhancement

Question: And the “Forskolin-stimulated intracellular cAMP accumulation” value (LTRGW1 [1])?
Answer: inhibition

Question: And the Chemotaxis (LTRGW1 [5])?
Answer: induces chemotaxis

Question: What about the Cellular calcium (LTRGW1 [6]) of the same compound?
Answer: increases cellular calcium; also recorded: increases intracellular calcium

Question: With `CCCCCCCC[C@H](O)/C=C/C=C\C=C\[C@H](O)CCCC(=O)O` [LTB3] as the compound, how does the “Forskolin-stimulated intracellular cAMP accumulation” value (LTRGW1 [1]) read?
Answer: inhibition

Question: Which “Forskolin-stimulated intracellular cAMP accumulation” value (LTRGW1 [1]) does the source give for `CC/C=C\C/C=C\C[C@@H](O)/C=C/C=C/C=C\[C@@H](O)CCCC(=O)O` [LTB5] here?
Answer: inhibition
